ChEMBL document CHEMBL1201862, “PubChem BioAssay data set” (2004)
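Exposure lasted 48 hours, with cells grown in 96-well plates and compounds tested at five concentrations. The concentration for 50% growth inhibition is given as GI50.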 Active and inactive are the calls of the source. Rule as the data show it: active = GI50 up to about 1.1 µM and inactive = higher.

Tests used:
Test in all cases: NCI tumour cell line growth inhibition, 48 h
[1] = test system: LOX IMVI
[2] = test system: T47D
[3] = test system: OVCAR-4
[4] = test system: SF-539
[5] = test system: SF-268
[6] = test system: CCRF-CEM
[7] = test system: SK-OV-3
[8] = test system: SNB-75
[9] = test system: NCI-H23
[10] = test system: CAKI-1
[11] = test system: SK-MEL-2
[12] = test system: UO-31
[13] = test system: MDA-N
[14] = test system: NCI-H522
[15] = test system: HL-60
[16] = test system: OVCAR-5
[17] = test system: Malme-3M
[18] = test system: A549
[19] = test system: SK-MEL-5
[20] = test system: A498

Measured: GI50

O=C(NN=C1CCCCC1)Nc1ccccc1Cl
inactive: [1] 53.7 µM | [2] 29.5 µM | [3] > 100 µM | [4] 32.5 µM | [5] 41.1 µM | [6] 42 µM | [7] 55.6 µM | [8] 2.82 µM | [9] 57.8 µM | [10] 92.7 µM | [11] 28.6 µM | [12] 61.9 µM | [13] 18.1 µM | [14] 23.1 µM | [15] 29.6 µM | [16] 54.2 µM | [17] 40.3 µM | [18] 81.7 µM | [19] 27.3 µM

COC(=O)C1=CS/C(=C2\S[C@@H]3[C@H](S2)[C@H]2C=C[C@@H]3C2)S1
inactive: [1] 13.1 µM | [2] > 100 µM | [3] > 100 µM | [4] 6.19 µM | [5] 38.7 µM | [6] 17.6 µM | [7] 47 µM | [8] 46.1 µM | [9] > 100 µM | [10] 7.14 µM | [11] 32.5 µM | [12] 46.1 µM | [20] 4.52 µM | [13] 3.49 µM | [15] 9.82 µM | [17] > 100 µM | [18] 30.8 µM | [19] 17.9 µM

C[C@]12CC[C@H]3[C@@H](CC=C4C[C@@H](O)CC[C@@]43C)[C@@H]1CC[C@@H]2N(CCO)CCO
inactive: [1] 40.7 µM | [2] 86.3 µM | [3] > 100 µM | [4] 54.7 µM | [5] 36 µM | [6] 46.2 µM | [7] 23.3 µM | [8] 72.8 µM | [9] > 100 µM | [10] 45.3 µM | [11] 76.2 µM | [12] 51.8 µM | [20] 16.1 µM | [13] 45.9 µM | [14] 20.4 µM | [16] 55.1 µM | [17] 31 µM | [18] 42 µM | [19] 63.5 µM

NC(=S)N/N=C1\CCc2ccccc2C1
inactive: [1] > 100 µM | [2] 13 µM | [3] > 100 µM | [4] > 100 µM | [5] > 100 µM | [6] 70.8 µM | [7] > 100 µM | [9] > 100 µM | [12] > 100 µM | [20] > 100 µM | [13] > 100 µM | [14] 55.3 µM | [15] 34.7 µM | [16] > 100 µM | [17] > 100 µM | [18] > 100 µM

Cc1ccc(SC2C(=O)C3CC(OCc4ccccc4)C2(C)C3(C)C)cc1 (stereo not given)
inactive: [2] 13.1 µM | [4] > 100 µM | [5] > 100 µM | [6] 73.8 µM | [7] > 100 µM | [9] 46.8 µM | [11] 38.7 µM | [12] > 100 µM | [20] > 100 µM | [13] > 100 µM | [15] 37.9 µM | [16] > 100 µM | [17] > 100 µM | [18] > 100 µM | [19] > 100 µM

CCN(CC)Cc1nc(C2CCC([N+](=O)[O-])O2)no1 (stereo not given)
inactive: [1] 31.4 µM | [2] 27.2 µM | [3] 77.3 µM | [4] 28.2 µM | [5] 24.5 µM | [6] 31.9 µM | [7] > 100 µM | [8] 16.6 µM | [9] 19.3 µM | [10] 72.8 µM | [11] 21.7 µM | [12] > 100 µM | [13] 17.4 µM | [14] 15.9 µM | [15] 16.6 µM | [16] 29.3 µM | [17] 15.9 µM | [18] 39.8 µM | [19] 16.4 µM

CC1=NC(=Cc2cc(Br)cc(Br)c2)C(=O)N1n1c(-c2ccccc2)nc2ccccc2c1=O
inactive: [1] > 100 µM | [2] > 100 µM | [3] > 100 µM | [4] > 100 µM | [5] > 100 µM | [6] > 100 µM | [7] > 100 µM | [8] > 100 µM | [9] > 100 µM | [10] > 100 µM | [11] > 100 µM | [12] > 100 µM | [13] > 100 µM | [14] > 100 µM | [15] > 100 µM | [16] > 100 µM | [17] > 100 µM | [18] > 100 µM | [19] > 100 µM

C=CCOC(=O)CCCCCCCCCCCCCCCOC(=O)c1c(CCC[C@@H](C)O[Si](C)(C)C(C)(C)C)nc([O-])[n+]2c1CC[C@H]2CC1(CC/C=C\[C@H](CC)O[Si](C(C)C)(C(C)C)C(C)C)OCCO1
inactive: [2] > 100 µM | [3] > 100 µM | [4] > 100 µM | [5] > 100 µM | [6] 14.4 µM | [7] > 100 µM | [8] > 100 µM | [9] > 100 µM | [10] > 100 µM | [11] 37.2 µM | [12] 28.4 µM | [20] > 100 µM | [13] 60.8 µM | [14] > 100 µM | [16] 30.1 µM | [17] > 100 µM | [18] 55 µM | [19] 21.9 µM

OC12CC3c4ccccc4NC3C3Oc4cccc5c4C31CCN(CC1CC1)C2C5 (stereo not given)
inactive: [1] 15.9 µM | [2] 18.9 µM | [3] 20.7 µM | [4] 26.5 µM | [5] 18.2 µM | [6] 23.4 µM | [7] 18.7 µM | [8] 15.3 µM | [9] 13 µM | [10] 17.6 µM | [11] 19.5 µM | [12] 15.8 µM | [20] 17.9 µM | [13] 17.9 µM | [14] 21.7 µM | [16] 21.1 µM | [17] 19.7 µM | [18] 18.4 µM | [19] 16.8 µM

N#C[C@@]12CCCC(=O)[C@@H]1[C@H]1CCC[C@H]12
inactive: [1] 14.4 µM | [2] 20.9 µM | [3] 21.3 µM | [4] 23.7 µM | [6] 16.6 µM | [7] 14.7 µM | [8] 13.7 µM | [9] 16.1 µM | [10] 16.3 µM | [11] 16.9 µM | [12] 16.1 µM | [20] 17.1 µM | [13] 18.8 µM | [15] 8.22 µM | [16] 9.46 µM | [17] 13.6 µM | [18] 16.7 µM | [19] 15.8 µM

Cn1cnnc1SC(F)(F)c1nc2ccccc2o1
inactive: [2] > 100 µM | [3] > 100 µM | [4] > 100 µM | [5] > 100 µM | [6] > 100 µM | [7] > 100 µM | [8] > 100 µM | [9] > 100 µM | [10] > 100 µM | [11] > 100 µM | [12] > 100 µM | [20] > 100 µM | [13] > 100 µM | [14] > 100 µM | [16] > 100 µM | [17] > 100 µM | [18] > 100 µM | [19] > 100 µM

COC(=O)c1c(C#N)[nH]c(-c2ccsc2)c1C(=O)OC
inactive: [1] > 100 µM | [2] 37.1 µM | [5] > 100 µM | [6] > 100 µM | [7] > 100 µM | [8] > 100 µM | [9] > 100 µM | [10] 33.4 µM | [11] > 100 µM | [12] 56.4 µM | [20] > 100 µM | [13] > 100 µM | [14] > 100 µM | [16] > 100 µM | [17] > 100 µM | [18] > 100 µM | [19] 39 µM

CN(C)c1c(C2CC(O)C(CO)O2)c(=O)c1=O (stereo not given)
inactive: [1] > 100 µM | [2] > 100 µM | [3] > 100 µM | [4] > 100 µM | [5] > 100 µM | [7] > 100 µM | [8] > 100 µM | [11] > 100 µM | [12] > 100 µM | [20] > 100 µM | [13] > 100 µM | [14] > 100 µM | [15] > 100 µM | [16] > 100 µM | [18] > 100 µM

Cc1nnc(N)nc1/C=C/c1c(O)ccc2ccccc12
inactive: [1] 34.3 µM | [2] 36.7 µM | [3] 20 µM | [5] 28.7 µM | [6] 15.5 µM | [7] 27.5 µM | [9] 24.8 µM | [10] 36.4 µM | [11] 15.2 µM | [12] 18.8 µM | [20] 21.3 µM | [13] 28.9 µM | [15] 28.2 µM | [16] 26.5 µM | [18] 34 µM | [19] 25.7 µM

CC(=O)OC1[C@H](OC(C)=O)C2=C(C)[C@@H](OC(C)=O)C[C@@]2(C(C)(C)O)[C@@H](OC(C)=O)[C@H]2[C@@]1(C)[C@@H](OC(C)=O)CC(OC(C)=O)[C@]21CO1 (stereo not given in full)
inactive: [1] > 100 µM | [2] > 100 µM | [3] > 100 µM | [4] > 100 µM | [5] > 100 µM | [6] > 100 µM | [7] > 100 µM | [8] > 100 µM | [9] > 100 µM | [10] > 100 µM | [11] > 100 µM | [12] > 100 µM | [13] > 100 µM | [14] > 100 µM | [15] > 100 µM | [16] > 100 µM | [17] > 100 µM | [18] > 100 µM | [19] > 100 µM
